Laboratory results as given in US10091998B2, “Tetrazolinone compound and use thereof” (SUMITOMO CHEMICAL COMPANY, LIMITED, priority 2013, dated 2018).

test system: second-instar larvae of diamondback moth (Plutella xylostella); test: Test Example 11: diamondback moth mortality on treated cabbage; format: in vivo; settings: 120 h, 500 ppm spray on cabbage, 20 mL per cup, 5 days at 25° C.
Protocol: As a test chemical solution used in the present test example, a water dilution (test chemical solution) was prepared so as to contain a predetermined concentration (500 ppm) of any one compound of the present compounds 1, 15, 17, and 55.
The test chemical solution was sprayed over cabbage in three-leaf stage sowed and grown in a polyethylene at a rate of 20 mL per cup. After drying the chemical solution, the stem and leaf portions were cut and disposed in a 50 mL cup. Five (5) heads of second-instar larvae of diamondback moth (Plutella xylostella) were released and then a lid was put on the cup. After storage at 25° C. for 5 days, the number of the dead insects was counted and mortality was calculated by the following equation. Mortality (%)=(number of dead insects/number of tested insects)×100

**Q.** Which mortality at 500 ppm does the source give for COc1ccccc1-c1csc(COc2c(C)cccc2-n2nnn(C)c2=O)n1 [Present Compound 55, 2-({[1-(4,5-dihydro-4-methyl-5-oxo-1H-tetrazol-1-yl)-3-methylphenyl-2-yl]oxy}methyl)-4-(2-methoxyphenyl)thiazole] here?
**A.** ≥ 80%

**Q.** How did the mortality at 500 ppm turn out when Cc1cc(-c2ccccc2C)ccc1COc1c(C)cccc1-n1nnn(C)c1=O [Present Compound 17] was run?
**A.** ≥ 80%

**Q.** How did the mortality at 500 ppm turn out when Cc1cccc(-n2nnn(C)c2=O)c1OCc1ccccc1 [Present Compound 1, 1-(2-phenylmethoxy-3-methylphenyl)-4-methyl-1,4-dihydrotetrazol-5-one] was run?
**A.** ≥ 80%

**Q.** For Cc1ccc(-c2ccc(COc3c(C)cccc3-n3nnn(C)c3=O)c(C)c2)cc1 [Present Compound 15], which mortality at 500 ppm is on record?
**A.** ≥ 80%
